The numbers were not newly measured in US20030008014A1, “Truncated apolipoprotein B-containing lipoprotein particles for delivery of compounds to tissues or cells” (priority 2001, published 2003), which cites them from elsewhere.

In one series the test system is breast tumor xenografts. As to conditions: two 10 mg/kg injections on days 1 and 4.

As to `CC(=O)O[C@H]1C(=O)[C@@]2(C)[C@H]([C@H](OC(=O)c3ccccc3)[C@]3(O)C[C@H](OC(=O)[C@H](O)[C@@H](NC(=O)c4ccccc4)c4ccccc4)C(C)=C1C3(C)C)[C@]1(OC(C)=O)CO[C@@H]1C[C@@H]2O` [paclitaxel], the “inhibition of tumor growth” value with breast tumor xenografts is “maximal inhibition of tumor growth”.
As to `CC(C)CCC[C@@H](C)[C@H]1CC[C@H]2[C@@H]3CC=C4C[C@@H](O)CC[C@]4(C)[C@H]3CC[C@]12C` [Free cholesterol, cholesterol], the “solubility in phospholipid disks” value is about 30 mole %.
